Laboratory results: patent publication US11872262B2, “Means and methods for treating bacterial infections” (VIB VZW, priority 2017, dated 2024)
Residues, ends and D or L forms follow the SMILES beside them.

Test system: E. coli O157:H7
Assay type: cell-based, Escherichia coli
Settings: screening-stage peptides tested at 1, 6, 12 and 25 μg/mL
Text: In the present invention we used the statistical thermodynamics algorithm TANGO to identify aggregation prone regions (APR) in the proteome of E. coli strain O157:H7. This yielded 3535 sequences of at least 6 amino acids in length and a TANGO score of at least 20%. In order to generate efficient aggregation seeds, we employed a previously devised tandem repeat design ^19, 21, in which the APRs are repeated once and separated by a linker. Given the length limitation on solid phase peptide synthesis with regard to yield and purity, we focused on the 1542 APRs with a length of 7 amino acids. In order to maximize the potential of these peptides to induce aggregation in E. coli, we ranked the APRs by their frequency of occurrence throughout the E. coli proteome, allowing a single amino acid mismatch, and selected the first 75 most frequently occurring sequences from this list (Table 4). In the design pattern, and in order to increase the colloidal stability of these aggregating peptides, the APRs are flanked by aggregation gatekeepers, a class of residues that was previously shown to reduce aggregation kinetics^22-24. […] To generate the tandem we used a single proline residue as a linker between the gatekeeper-flanked APRs. In addition to the 75 peptides generated in this fashion, we added 2 variants of each of the first 25 peptides in the list by randomly mutating one residue in the first APR repeat to arginine to further modulate the aggregation propensity of the peptides (Table 4). All the peptides were generated using solid phase synthesis at 200 nmole scale and dissolved in DMSO to a theoretical stock concentration of 2 mM (assuming 100% synthesis efficiency). Peptide activity on the growth of E. coli O157:H7 was measured at dilutions of the peptide corresponding to concentrations of 1, 6, 12 and 25 μg/mL. […] The Matthews Correlations Coefficient (MCC) with the measured activity was 0.1 at 12 μg/mL and 0.24 at 25 μg/mL.

How did the “E. coli O157 (apparent MIC in screen)” value turn out when `CC(C)C[C@H](NC(=O)CNC(=O)[C@H](CCCNC(=N)N)NC(=O)[C@@H]1CCCN1C(=O)[C@H](CCCNC(=N)N)NC(=O)[C@H](CCCNC(=N)N)NC(=O)[C@H](C)NC(=O)[C@H](CC(C)C)NC(=O)[C@H](CCCNC(=N)N)NC(=O)[C@H](C)NC(=O)[C@H](CC(C)C)NC(=O)[C@H](CC(C)C)NC(=O)CNC(=O)[C@@H](N)CCCNC(=N)N)C(=O)N[C@@H](CC(C)C)C(=O)N[C@@H](C)C(=O)N[C@@H](CC(C)C)C(=O)N[C@@H](CC(C)C)C(=O)N[C@@H](C)C(=O)N[C@@H](CCCNC(=N)N)C(=O)N[C@@H](CCCNC(=N)N)C(=O)O` [Peptide P89] (H-RGLLARLARRPRGLLALLARR-OH; N-terminus and C-terminus assumed) was run?
Its value is 12 µg/mL.

With `CC(C)C[C@H](NC(=O)CNC(=O)[C@@H](NC(=O)[C@H](CC(C)C)NC(=O)[C@H](CCCNC(=N)N)NC(=O)[C@@H]1CCCN1C(=O)[C@H](CCCNC(=N)N)NC(=O)[C@H](CCCNC(=N)N)NC(=O)CNC(=O)[C@H](CC(C)C)NC(=O)[C@@H](NC(=O)[C@H](CC(C)C)NC(=O)CNC(=O)[C@@H](NC(=O)[C@H](CC(C)C)NC(=O)[C@@H](N)CCCNC(=N)N)C(C)C)C(C)C)C(C)C)C(=O)N[C@H](C(=O)N[C@@H](CC(C)C)C(=O)NCC(=O)N[C@@H](CCCNC(=N)N)C(=O)N[C@@H](CCCNC(=N)N)C(=O)O)C(C)C` [Peptide P50] (H-RLVGLVLGRRPRLVGLVLGRR-OH; N-terminus and C-terminus assumed) as the compound, how does the “E. coli O157 (apparent MIC in screen)” value read?
The value was 6 µg/mL.

With `CC[C@H](C)[C@H](NC(=O)CNC(=O)[C@@H](NC(=O)[C@H](CC(C)C)NC(=O)[C@H](CCCNC(=N)N)NC(=O)[C@@H]1CCCN1C(=O)[C@H](CCCNC(=N)N)NC(=O)[C@H](CCCNC(=N)N)NC(=O)CNC(=O)[C@H](CC(C)C)NC(=O)[C@H](C)NC(=O)[C@@H](NC(=O)[C@H](CCCNC(=N)N)NC(=O)[C@@H](NC(=O)[C@H](CC(C)C)NC(=O)[C@@H](N)CCCNC(=N)N)[C@@H](C)CC)[C@@H](C)CC)[C@@H](C)CC)C(=O)N[C@@H](C)C(=O)N[C@@H](CC(C)C)C(=O)NCC(=O)N[C@@H](CCCNC(=N)N)C(=O)N[C@@H](CCCNC(=N)N)C(=O)O` [Peptide P115] (H-RLIRIALGRRPRLIGIALGRR-OH; N-terminus and C-terminus assumed) as the compound, how does the “E. coli O157 (apparent MIC in screen)” value read?
The value was 25 µg/mL.

Which “E. coli O157 (apparent MIC in screen)” value does the source give for `CC(C)C[C@H](NC(=O)[C@H](C)NC(=O)[C@H](CC(C)C)NC(=O)[C@H](CC(C)C)NC(=O)[C@H](CC(C)C)NC(=O)[C@H](CCCNC(=N)N)NC(=O)[C@@H]1CCCN1C(=O)[C@H](CCCNC(=N)N)NC(=O)[C@H](CCCNC(=N)N)NC(=O)[C@H](CO)NC(=O)[C@H](CC(C)C)NC(=O)[C@H](CC(C)C)NC(=O)[C@H](C)NC(=O)[C@H](CC(C)C)NC(=O)[C@H](CC(C)C)NC(=O)[C@H](CC(C)C)NC(=O)[C@@H](N)CCCNC(=N)N)C(=O)N[C@@H](CC(C)C)C(=O)N[C@@H](CO)C(=O)N[C@@H](CCCNC(=N)N)C(=O)N[C@@H](CCCNC(=N)N)C(=O)O` [Peptide P3] (H-RLLLALLSRRPRLLLALLSRR-OH; N-terminus and C-terminus assumed) here?
The value was 12 µg/mL.

Which “E. coli O157 (apparent MIC in screen)” value does the source give for `CC(C)C[C@H](NC(=O)[C@H](C)NC(=O)[C@H](CC(C)C)NC(=O)[C@H](CCCNC(=N)N)NC(=O)[C@@H]1CCCN1C(=O)[C@H](CCCNC(=N)N)NC(=O)[C@H](CCCNC(=N)N)NC(=O)[C@H](CC(C)C)NC(=O)[C@H](CC(C)C)NC(=O)[C@H](CC(C)C)NC(=O)[C@H](CCCNC(=N)N)NC(=O)[C@H](CC(C)C)NC(=O)[C@H](C)NC(=O)[C@H](CC(C)C)NC(=O)[C@@H](N)CCCNC(=N)N)C(=O)N[C@@H](C)C(=O)N[C@@H](CC(C)C)C(=O)N[C@@H](CC(C)C)C(=O)N[C@@H](CC(C)C)C(=O)N[C@@H](CCCNC(=N)N)C(=O)N[C@@H](CCCNC(=N)N)C(=O)O` [Peptide P79] (H-RLALRLLLRRPRLALALLLRR-OH; N-terminus and C-terminus assumed) here?
The value was 12 µg/mL.

With `CC(C)C[C@H](NC(=O)[C@H](C)NC(=O)[C@@H](N)CCCNC(=N)N)C(=O)N[C@@H](CC(C)C)C(=O)N[C@@H](CCCNC(=N)N)C(=O)N[C@H](C(=O)N[C@@H](CC(C)C)C(=O)N[C@@H](CC(C)C)C(=O)N[C@@H](CCCNC(=N)N)C(=O)N[C@@H](CCCNC(=N)N)C(=O)N1CCC[C@H]1C(=O)N[C@@H](CCCNC(=N)N)C(=O)N[C@@H](C)C(=O)N[C@@H](CC(C)C)C(=O)N[C@@H](CC(C)C)C(=O)N[C@H](C(=O)N[C@H](C(=O)N[C@@H](CC(C)C)C(=O)N[C@@H](CC(C)C)C(=O)N[C@@H](CCCNC(=N)N)C(=O)N[C@@H](CCCNC(=N)N)C(=O)O)[C@@H](C)O)[C@@H](C)O)[C@@H](C)O` [Peptide P105] (H-RALLRTLLRRPRALLTTLLRR-OH; N-terminus and C-terminus assumed) as the compound, how does the “E. coli O157 (apparent MIC in screen)” value read?
Its value is 6 µg/mL.

Which “E. coli O157 (apparent MIC in screen)” value does the source give for `CC[C@H](C)[C@H](NC(=O)CNC(=O)[C@H](CC(C)C)NC(=O)[C@H](CCCNC(=N)N)NC(=O)[C@@H]1CCCN1C(=O)[C@H](CCCNC(=N)N)NC(=O)[C@H](CCCNC(=N)N)NC(=O)[C@H](CC(C)C)NC(=O)[C@H](C)NC(=O)[C@@H](NC(=O)[C@H](C)NC(=O)[C@@H](NC(=O)CNC(=O)[C@H](CC(C)C)NC(=O)[C@@H](N)CCCNC(=N)N)[C@@H](C)CC)C(C)C)C(=O)N[C@@H](C)C(=O)N[C@H](C(=O)N[C@@H](C)C(=O)N[C@@H](CC(C)C)C(=O)N[C@@H](CCCNC(=N)N)C(=O)N[C@@H](CCCNC(=N)N)C(=O)O)C(C)C` [Peptide P33] (H-RLGIAVALRRPRLGIAVALRR-OH; N-terminus and C-terminus assumed) here?
The value was 25 µg/mL.

With `CC[C@H](C)[C@H](NC(=O)[C@H](CC(C)C)NC(=O)[C@H](CC(C)C)NC(=O)[C@H](C)NC(=O)[C@H](CCCNC(=N)N)NC(=O)[C@@H]1CCCN1C(=O)[C@H](CCCNC(=N)N)NC(=O)[C@H](CCCNC(=N)N)NC(=O)[C@H](CC(C)C)NC(=O)[C@H](CC(C)C)NC(=O)[C@@H](NC(=O)[C@@H](NC(=O)[C@H](CC(C)C)NC(=O)[C@H](CC(C)C)NC(=O)[C@H](C)NC(=O)[C@@H](N)CCCNC(=N)N)[C@@H](C)CC)[C@@H](C)O)C(=O)N[C@H](C(=O)N[C@@H](CC(C)C)C(=O)N[C@@H](CC(C)C)C(=O)N[C@@H](CCCNC(=N)N)C(=O)N[C@@H](CCCNC(=N)N)C(=O)O)[C@@H](C)O` [Peptide P23] (H-RALLITLLRRPRALLITLLRR-OH; N-terminus and C-terminus assumed) as the compound, how does the “E. coli O157 (apparent MIC in screen)” value read?
The value was 25 µg/mL.

`CC(C)C[C@H](NC(=O)CNC(=O)[C@H](CCCNC(=N)N)NC(=O)[C@@H]1CCCN1C(=O)[C@H](CCCNC(=N)N)NC(=O)[C@H](CCCNC(=N)N)NC(=O)[C@H](C)NC(=O)[C@H](CC(C)C)NC(=O)[C@H](CC(C)C)NC(=O)[C@H](C)NC(=O)[C@H](CC(C)C)NC(=O)[C@H](CC(C)C)NC(=O)CNC(=O)[C@@H](N)CCCNC(=N)N)C(=O)N[C@@H](CC(C)C)C(=O)N[C@@H](C)C(=O)N[C@@H](CC(C)C)C(=O)N[C@@H](CC(C)C)C(=O)N[C@@H](C)C(=O)N[C@@H](CCCNC(=N)N)C(=O)N[C@@H](CCCNC(=N)N)C(=O)O` [Peptide P14] (H-RGLLALLARRPRGLLALLARR-OH; N-terminus and C-terminus assumed) was tested. Which “E. coli O157 (apparent MIC in screen)” value did it give?
The value was 12 µg/mL.
